IC50 data for ten molecules are collected here from BindingDB's records for doi:10.1002/cbic.200500168 (University of Leipzig, 2005).

For the test, the target named is T1, Kinesin-like protein KIF11 (Homo sapiens, UniProt P52732).
T1 sequence (P52732 whole entry): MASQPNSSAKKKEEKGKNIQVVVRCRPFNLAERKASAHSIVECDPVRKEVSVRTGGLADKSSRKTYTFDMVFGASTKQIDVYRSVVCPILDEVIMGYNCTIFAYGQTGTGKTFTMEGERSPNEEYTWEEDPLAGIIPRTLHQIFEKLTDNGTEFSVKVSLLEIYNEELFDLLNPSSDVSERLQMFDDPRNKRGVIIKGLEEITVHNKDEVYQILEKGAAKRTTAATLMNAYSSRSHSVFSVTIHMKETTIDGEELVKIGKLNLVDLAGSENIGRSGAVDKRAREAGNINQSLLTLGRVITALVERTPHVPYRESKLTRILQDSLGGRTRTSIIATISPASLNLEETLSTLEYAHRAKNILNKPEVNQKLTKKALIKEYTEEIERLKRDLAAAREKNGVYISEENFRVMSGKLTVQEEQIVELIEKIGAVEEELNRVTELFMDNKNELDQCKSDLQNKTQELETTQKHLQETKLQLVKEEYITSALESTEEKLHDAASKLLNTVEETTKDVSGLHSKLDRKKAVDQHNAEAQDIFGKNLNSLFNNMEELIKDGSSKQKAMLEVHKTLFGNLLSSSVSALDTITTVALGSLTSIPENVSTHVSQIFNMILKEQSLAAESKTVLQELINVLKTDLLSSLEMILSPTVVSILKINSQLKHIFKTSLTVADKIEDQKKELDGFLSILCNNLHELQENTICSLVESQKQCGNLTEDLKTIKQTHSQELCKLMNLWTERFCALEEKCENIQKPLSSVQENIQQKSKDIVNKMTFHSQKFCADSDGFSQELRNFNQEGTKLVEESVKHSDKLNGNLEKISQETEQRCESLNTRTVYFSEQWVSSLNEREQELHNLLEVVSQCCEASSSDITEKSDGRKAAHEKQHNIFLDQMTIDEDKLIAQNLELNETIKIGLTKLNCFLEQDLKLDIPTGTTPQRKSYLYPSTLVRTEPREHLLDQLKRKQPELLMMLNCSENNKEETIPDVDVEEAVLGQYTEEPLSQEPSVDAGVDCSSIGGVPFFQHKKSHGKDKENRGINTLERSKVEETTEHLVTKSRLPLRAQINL
Description: Malachite Green Assay. The conditions noted are these: pH 6.8; 25 °C. On the procedure:
The ATPase activity of the Eg5 motor domain was measured by using the malachite green assay.

As for `Oc1cccc(C2NC(=S)Nc3cc(F)ccc32)c1` (stereo not given) [VS-54], the half-maximal inhibitory concentration (IC50) (in general, the concentration needed to halve the response being measured) worked out at 1.81 µM.
`Oc1cccc(C2NC(=S)Nc3ccccc32)c1` (stereo not given) [VS-12] had an IC50 of 7.6 µM.
As for `CCOC(=O)C1C(C)=NC(=S)N[C@H]1c1cccc(O)c1` (stereo not given in full) [Monastrol], half-maximal inhibition (IC50) required 20.7 µM.
The molecule `Oc1cccc(C2NC(=S)Nc3ccc(F)cc32)c1` (stereo not given) [VS-77] displayed an IC50 of 8.04 µM.
Next, `Cc1ccc2c(c1)C(c1cccc(O)c1)NC(=S)N2` (stereo not given) [VS-94]: 2.73 µM; `Oc1cccc(C2NC(=S)Nc3cc(F)c(F)cc32)c1` (stereo not given) [VS-87]: 2.74 µM; `Oc1cccc(C2NC(=S)Nc3cccc(F)c32)c1` (stereo not given) [VS-83]: 1.17 µM.
Next, `Oc1cccc(C2NC(=S)Nc3ccc(Cl)cc32)c1` (stereo not given) [VS-42]: 5.77 µM; `Cc1ccc2c(c1)NC(=S)NC2c1cccc(O)c1` (stereo not given) [VS-91]: 7.59 µM.
The figure for `Oc1cccc(C2NC(=S)Nc3ccc(Br)cc32)c1` (stereo not given) [VS-17] is 5.75 µM.
